Reference: article PMC12136037, “Type II kinase inhibitors that target Parkinson’s disease–associated LRRK2” (Science Advances, 2025)
Values joined by “and” are separate entries in the source; they are usually repeats but may differ in a detail not shown here. Identical values can stand only once.

How the values were obtained:
[1] = molecular target: T1, LRRK2^RCKW (Homo sapiens, UniProt Q5S007); assay: Biochemical LRRK2 activity assay (PhosphoSense, AssayQuant SOX peptide AQT0615); settings: for IC50: LRRK2^RCKW kinase activity, in vitro; for normalized response (LRRK2 activity): normalized to 0% (no kinase) and 100% (no inhibitor) control, two singlicate columns per compound
T1 construct: LRRK2 R1327 to E2527; His6-Z-tag (TEV cleavable) (N, cleaved yes); host or cells: Sf9 insect cells (baculovirus)
T1 sequence (Q5S007 1327-2527): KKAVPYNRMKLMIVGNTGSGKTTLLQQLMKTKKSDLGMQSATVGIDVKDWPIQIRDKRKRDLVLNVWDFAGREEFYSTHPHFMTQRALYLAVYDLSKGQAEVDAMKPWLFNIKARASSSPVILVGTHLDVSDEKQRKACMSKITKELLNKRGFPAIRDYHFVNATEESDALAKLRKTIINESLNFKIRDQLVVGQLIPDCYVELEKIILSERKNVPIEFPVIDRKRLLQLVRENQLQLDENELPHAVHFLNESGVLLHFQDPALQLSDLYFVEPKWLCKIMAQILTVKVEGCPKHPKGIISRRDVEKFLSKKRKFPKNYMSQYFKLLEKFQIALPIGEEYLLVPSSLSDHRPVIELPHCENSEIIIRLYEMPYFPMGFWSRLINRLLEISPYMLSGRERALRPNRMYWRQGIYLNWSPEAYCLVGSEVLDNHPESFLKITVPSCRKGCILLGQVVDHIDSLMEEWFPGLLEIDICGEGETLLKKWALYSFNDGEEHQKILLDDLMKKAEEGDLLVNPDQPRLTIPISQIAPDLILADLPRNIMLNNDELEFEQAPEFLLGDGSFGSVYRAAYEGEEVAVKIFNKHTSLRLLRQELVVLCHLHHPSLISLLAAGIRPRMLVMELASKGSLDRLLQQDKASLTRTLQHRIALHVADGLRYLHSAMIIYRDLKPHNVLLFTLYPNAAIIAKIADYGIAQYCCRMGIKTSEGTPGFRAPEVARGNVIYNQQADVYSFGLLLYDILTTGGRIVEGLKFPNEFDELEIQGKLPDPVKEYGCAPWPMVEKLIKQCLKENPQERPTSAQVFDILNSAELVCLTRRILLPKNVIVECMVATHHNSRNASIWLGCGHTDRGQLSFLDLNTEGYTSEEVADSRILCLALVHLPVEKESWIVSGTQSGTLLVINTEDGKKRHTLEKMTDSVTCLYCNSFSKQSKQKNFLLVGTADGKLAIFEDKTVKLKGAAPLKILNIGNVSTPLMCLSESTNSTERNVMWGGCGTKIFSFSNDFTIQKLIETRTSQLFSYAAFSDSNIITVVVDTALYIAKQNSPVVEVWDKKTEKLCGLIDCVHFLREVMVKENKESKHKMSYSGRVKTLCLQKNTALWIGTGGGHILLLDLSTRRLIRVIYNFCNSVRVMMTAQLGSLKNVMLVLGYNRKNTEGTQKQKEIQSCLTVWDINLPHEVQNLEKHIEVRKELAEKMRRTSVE
Outline: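 Controls lacked protein and compound (0%) or compound only (100%). IC50 derived by nonlinear regression of normalized response versus log[inhibitor].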

[2] = molecular target: T2, ~100 representative kinases (Homo sapiens, UniProt Q96GD4); assay: DSF 100 kinase selectivity screen; type: binding; settings: Protein AURKB; average of three replicates;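 further: compound tested at 20 µM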
T2 construct: Recombinant protein kinase domains with a concentration of 2 μM
T2 sequence (Q96GD4 whole entry, the tested form may be a part): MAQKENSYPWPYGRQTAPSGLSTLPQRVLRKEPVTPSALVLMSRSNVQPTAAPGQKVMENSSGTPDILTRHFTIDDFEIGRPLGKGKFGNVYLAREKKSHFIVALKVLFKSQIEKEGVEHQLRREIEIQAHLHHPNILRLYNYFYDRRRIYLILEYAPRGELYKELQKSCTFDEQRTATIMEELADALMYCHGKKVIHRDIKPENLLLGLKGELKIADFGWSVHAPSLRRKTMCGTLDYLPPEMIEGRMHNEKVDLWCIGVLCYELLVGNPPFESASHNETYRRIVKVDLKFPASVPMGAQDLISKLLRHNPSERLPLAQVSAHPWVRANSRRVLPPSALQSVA
Outline: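 Each kinase domain, at 2 μM, is mixed with 20 μM test compound and SYPRO Orange in Hepes (20 mM, pH 7.5) with 500 mM NaCl. Temperature is then raised at 3°C/min and fluorescence-monitored unfolding yields the melting temperature change, ΔTm in degrees Celsius.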

Row | IC50 [1] [nM] | normalized response (LRRK2 activity) ([1]; log[inhibitor(mol)] -5.12494) | normalized response (LRRK2 activity) ([1]; log[inhibitor(mol)] -5.60206) | normalized response (LRRK2 activity) ([1]; log[inhibitor(mol)] -6.30103) | normalized response (LRRK2 activity) ([1]; log[inhibitor(mol)] -6.90309) | normalized response (LRRK2 activity) ([1]; log[inhibitor(mol)] -7.30103) | normalized response (LRRK2 activity) ([1]; log[inhibitor(mol)] -7.60206) | normalized response (LRRK2 activity) ([1]; log[inhibitor(mol)] -8.09691) | normalized response (LRRK2 activity) ([1]; log[inhibitor(mol)] -8.61979) | normalized response (LRRK2 activity) ([1]; log[inhibitor(mol)] -9.09691) | normalized response (LRRK2 activity) ([1]; log[inhibitor(mol)] -9.39794) | normalized response (LRRK2 activity) ([1]; log[inhibitor(mol)] -4.82391) | Structure (SMILES) | dTm [2] [K]
1 | 2150 ± 76 | 21.5574% and 22.3836% | 47.7852% and 45.6806% | 71.6605% and 77.9071% | 94.0943% and 97.1643% | 97.7557% and 95.1358% | 95.6902% and 98.0188% | 96.4251% and 96.973% | 102.476% and 68.784% | 101.485% and 101.404% | 101.487% and 73.6695% | 17.1176% and 19.6941% | Cc1cc(NC(=O)C2(C(=O)Nc3ccc(F)cc3)CC2)cc(-c2c[nH]c3ncnc(N4CCOCC4)c23)c1 [Compound 6] | 4.75
2 | 1100 ± 217 | 0.6005% and -2.272% | 29.0484% and 32.3505% | 66.3591% and 78.0881% | 96.3721% and 94.5984% | 96.366% and 105.259% | 97.2621% and 95.7829% | 97.8759% and 91.3822% | 98.0661% and 96.7588% | 100.497% and 98.6001% | 96.0714% and 99.3612% | -5.114% and -9.8151% | COc1ccc(NC(=O)C2(C(=O)Nc3cccc(-c4c[nH]c5ncnc(N6CCOCC6)c45)c3)CC2)cc1 [Compound 16] | –
3 | 1190 ± 231 | 6.394% and 5.578% | 30.1593% and 37.3588% | 66.9115% and 76.4371% | 91.3884% and 99.1893% | 98.0109% and 87.3375% | 102.16% and 100.865% | 98.4037% and 99.8706% | 99.6435% and 101.436% | – | 101.258% and 60.2522% | – | Cc1cc(F)ccc1NC(=O)C1(C(=O)Nc2cccc(-c3c[nH]c4ncnc(N5CCOCC5)c34)c2)CC1 [Compound 24] | –
4 | 253 ± 33 | -9.447% and -10.6928% | 0.9319% and 1.085% | 26.1821% and 29.3798% | 67.0342% and 72.3494% | 85.8031% and 94.494% | 98.3853% and 103.983% | 103.068% and 102.123% | 111.403% and 110.329% | 113.398% and 109.795% | 105.315% and 104.756% | -1.222% and -11.0979% | O=C(Nc1cccc(-c2c[nH]c3ncnc(N4CCOCC4)c23)c1)C1(C(=O)Nc2ccc(F)c(F)c2)CC1 [Compound 17] | –
5 | 331 ± 59 | -8.581% and -13.1049% | -3.229% and 0.9871% | 31.841% and 40.7652% | 74.4117% and 83.0044% | 89.3998% and 91.1429% | 98.2625% and 97.8145% | 90.8667% and 93.1069% | 91.1981% and 94.2547% | 94.6536% and 91.2165% | 100.092% and 102.338% | – | COc1cc(NC(=O)C2(C(=O)Nc3cccc(-c4c[nH]c5ncnc(N6CCOCC6)c45)c3)CC2)ccc1F [Compound 21] | –

Continued, compound first:

Row | Structure (SMILES) | IC50 [1] [nM] | normalized response (LRRK2 activity) ([1]; log[inhibitor(mol)] -5.12494) | normalized response (LRRK2 activity) ([1]; log[inhibitor(mol)] -5.60206) | normalized response (LRRK2 activity) ([1]; log[inhibitor(mol)] -6.30103) | normalized response (LRRK2 activity) ([1]; log[inhibitor(mol)] -6.90309) | normalized response (LRRK2 activity) ([1]; log[inhibitor(mol)] -7.30103) | normalized response (LRRK2 activity) ([1]; log[inhibitor(mol)] -7.60206) | normalized response (LRRK2 activity) ([1]; log[inhibitor(mol)] -8.09691) | normalized response (LRRK2 activity) ([1]; log[inhibitor(mol)] -8.61979) | normalized response (LRRK2 activity) ([1]; log[inhibitor(mol)] -9.09691) | normalized response (LRRK2 activity) ([1]; log[inhibitor(mol)] -9.39794) | normalized response (LRRK2 activity) ([1]; log[inhibitor(mol)] -4.82391) | dTm [2] [K]
6 | CC(=O)N1CCN(c2nc(Cl)nc3[nH]cc(-c4cccc(NC(=O)Nc5cc(C(C)(C)C)nn5-c5ccc(C)cc5)c4)c23)CC1 [Compound 31] | 82.4 ± 19 | -8.142% and -8.098% | -6.069% and -3.667% | 1.516% and 5.662% | 27.0499% and 37.6124% | 59.8343% and 70.8356% | 80.8168% and 85.4399% | 99.1997% and 109.801% | 111.451% and 122.71% | 117.928% and 123.215% | 115.57% and 119.935% | – | -1.00
7 | Cc1ccc(C(=O)Nc2ccc(CN3CCN(C)CC3)c(C(F)(F)F)c2)cc1C#Cc1cnc2cccnn12 [Ponatinib, reference compound] | – | – | – | 56.5539% and 57.6737% | 39.5492% and 29.1129% | 59.9414% and 56.1669% | 77.794% and 52.662% | 99.8669% and 100.13% | 102.911% | 103.335% and 101.393% | 103.789% and 105.568% | – | 0.49
8 | Cn1cc(-c2c[nH]c3ncnc(N4CCOCC4)c23)cc1C#N [PFE-360] | – | – | – | – | – | – | – | – | – | – | – | – | 2.36
9 | CCNc1nc(Nc2cc(F)c(C(=O)N3CCOCC3)cc2OC)ncc1C(F)(F)F [GNE-7915] | – | – | – | – | – | – | – | – | – | – | – | – | -1.42
10 | CCc1ccc(NC(=O)C2(C(=O)Nc3cccc(-c4c[nH]c5ncnc(N6CCOCC6)c45)c3)CC2)cc1 [Compound 15] | 960 ± 33 | -0.2711% and -2.401% | 22.7451% and 24.0892% | 67.6419% and 69.4402% | 95.7584% and 98.1889% | 103.897% and 98.4037% | 108.801% and 106.855% | 103.13% and 100.705% | 105.315% and 96.9982% | 106.518% and 101.982% | 107.174% and 104.775% | – | –
11 | C[C@@H]1CN(c2cc(-c3n[nH]c4ccc(OC5(C)CC5)cc34)ncn2)C[C@H](C)O1 [MLi2] | – | – | – | – | – | – | – | – | – | – | – | – | -0.83
12 | O=C(Nc1cccc(-c2c[nH]c3ncnc(N4CCOCC4)c23)c1)c1cccn(-c2ccc(F)cc2)c1=O [Compound 4] | 167 ± 4 | – | – | 8.354% and 15.3302% | 58.3207% and 57.3774% | 76.6433% and 88.9388% | 88.7743% and 91.0393% | 93.6662% and 93.1068% | 96.9841% and 102.616% | 103.96% and 100.631% | 95.5418% and 116.272% | 9.714% and 10.3287% | –
